Assay results from BindingDB's records for doi:10.1021/jm990200p (Synaptic Pharmaceutical, 1999).

Test: In vitro binding affinity against Alpha-1A adrenergic receptor in isolated prostate tissue of dog

CCC1=C(C(N)=O)C(c2ccc(F)c(F)c2)N(C(=O)NCCCN2CCC(C(=O)OC)(c3ccccc3)CC2)C(=O)N1 (stereo unspecified) [1-(3-{[5-Carbamoyl-6-(3,4-difluoro-phenyl)-4-ethyl-2-oxo-3,6-dihydro-2H-pyrimidine-1-carbonyl]-amino}-propyl)-4-phenyl-piperidine-4-carboxylic acid methyl ester]
Ki: 1.3 nM
